One assay has as its target T1, Rat CYP3A2 (Rattus norvegicus, UniProt P05183).
T1 sequence (P05183 1-504): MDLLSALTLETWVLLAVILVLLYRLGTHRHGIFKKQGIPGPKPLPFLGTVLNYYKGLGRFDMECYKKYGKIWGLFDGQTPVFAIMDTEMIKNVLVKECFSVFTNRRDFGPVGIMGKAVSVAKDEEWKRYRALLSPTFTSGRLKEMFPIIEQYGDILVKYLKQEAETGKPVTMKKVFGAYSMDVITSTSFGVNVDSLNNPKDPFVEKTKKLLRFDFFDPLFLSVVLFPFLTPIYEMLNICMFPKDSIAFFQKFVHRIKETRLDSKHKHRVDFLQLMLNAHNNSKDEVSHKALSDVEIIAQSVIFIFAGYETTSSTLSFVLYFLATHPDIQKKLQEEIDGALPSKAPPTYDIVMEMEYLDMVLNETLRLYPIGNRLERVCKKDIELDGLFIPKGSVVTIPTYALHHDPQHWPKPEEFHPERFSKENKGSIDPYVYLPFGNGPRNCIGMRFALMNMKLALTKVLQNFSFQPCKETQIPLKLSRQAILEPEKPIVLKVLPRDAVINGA
Kind of assay: Turnover of fluorometric substrates by rat CYP3A2. The note with it: substrate uM: Ia 2, AMMC 20, CEC 40, MFC 50, BFC 50, BQ 40, BzRes 50; 30 min; enzyme 50 nM.

The target of a further assay is T2, Rat CYP2B1 (Rattus norvegicus, UniProt P00176).
T2 sequence (P00176 1-491): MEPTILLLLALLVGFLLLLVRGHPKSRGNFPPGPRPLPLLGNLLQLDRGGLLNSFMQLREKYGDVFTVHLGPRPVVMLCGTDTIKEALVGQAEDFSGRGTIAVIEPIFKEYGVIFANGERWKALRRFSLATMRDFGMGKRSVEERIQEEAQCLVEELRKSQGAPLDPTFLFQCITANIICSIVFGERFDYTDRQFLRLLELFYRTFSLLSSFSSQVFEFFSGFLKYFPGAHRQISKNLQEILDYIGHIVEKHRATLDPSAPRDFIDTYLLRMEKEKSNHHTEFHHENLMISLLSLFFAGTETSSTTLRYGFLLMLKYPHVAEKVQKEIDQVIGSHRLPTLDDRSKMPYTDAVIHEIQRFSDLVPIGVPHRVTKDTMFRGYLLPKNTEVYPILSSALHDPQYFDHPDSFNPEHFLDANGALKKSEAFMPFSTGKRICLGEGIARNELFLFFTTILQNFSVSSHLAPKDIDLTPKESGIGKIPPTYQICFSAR
Kind of assay: Turnover of fluorometric substrates by rat CYP2B1. The note with it: substrate uM: Ia 2, AMMC 20, CEC 40, MFC 50, BFC 50, BQ 40, BzRes 50; 30 min; enzyme 50 nM.

A further assay addresses T3, Rat CYP2C6 (Rattus norvegicus, UniProt P05178).
T3 sequence (P05178 1-490): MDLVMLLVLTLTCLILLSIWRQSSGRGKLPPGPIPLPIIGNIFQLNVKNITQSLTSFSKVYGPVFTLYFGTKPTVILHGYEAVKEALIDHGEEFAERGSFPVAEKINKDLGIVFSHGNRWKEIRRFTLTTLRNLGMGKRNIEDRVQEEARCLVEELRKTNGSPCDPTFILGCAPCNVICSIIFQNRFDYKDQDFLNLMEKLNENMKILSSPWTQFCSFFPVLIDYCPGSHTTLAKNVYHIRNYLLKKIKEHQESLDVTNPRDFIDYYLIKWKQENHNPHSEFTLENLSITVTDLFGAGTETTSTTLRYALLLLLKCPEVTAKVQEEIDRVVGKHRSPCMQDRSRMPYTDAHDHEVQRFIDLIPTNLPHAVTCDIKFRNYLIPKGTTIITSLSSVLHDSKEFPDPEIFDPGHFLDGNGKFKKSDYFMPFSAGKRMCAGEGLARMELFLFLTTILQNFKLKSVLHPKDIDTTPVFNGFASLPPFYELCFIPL
Kind of assay: Turnover of fluorometric substrates by rat CYP2C6. The note with it: substrate uM: Ia 2, AMMC 20, CEC 40, MFC 50, BFC 50, BQ 40, BzRes 50; 30 min; enzyme 50 nM.

For another assay, the target named is T4, Rat CYP2D2 (Rattus norvegicus, UniProt P10634).
T4 sequence (P10634 1-500): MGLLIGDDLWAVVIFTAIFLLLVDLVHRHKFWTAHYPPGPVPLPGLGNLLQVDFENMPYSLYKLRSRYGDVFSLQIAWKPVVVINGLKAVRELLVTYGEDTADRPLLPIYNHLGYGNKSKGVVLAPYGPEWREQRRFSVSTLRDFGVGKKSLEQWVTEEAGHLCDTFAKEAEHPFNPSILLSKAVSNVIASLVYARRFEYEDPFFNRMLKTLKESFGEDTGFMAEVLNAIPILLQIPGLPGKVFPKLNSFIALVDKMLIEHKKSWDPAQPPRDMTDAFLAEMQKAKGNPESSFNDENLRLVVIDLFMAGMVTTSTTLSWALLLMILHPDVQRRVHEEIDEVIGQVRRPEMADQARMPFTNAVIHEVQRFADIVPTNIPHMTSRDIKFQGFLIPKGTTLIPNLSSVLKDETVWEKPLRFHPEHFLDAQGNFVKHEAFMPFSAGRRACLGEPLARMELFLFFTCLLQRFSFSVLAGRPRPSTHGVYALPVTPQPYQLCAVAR
Kind of assay: Turnover of fluorometric substrates by rat CYP2D2. Particulars: substrate uM: Ia 2, AMMC 20, CEC 40, MFC 50, BFC 50, BQ 40, BzRes 50; 30 min; enzyme 50 nM.

Another assay deals with T5, Rat CYP1A1 (Rattus norvegicus, UniProt P00185).
T5 sequence (P00185 1-524): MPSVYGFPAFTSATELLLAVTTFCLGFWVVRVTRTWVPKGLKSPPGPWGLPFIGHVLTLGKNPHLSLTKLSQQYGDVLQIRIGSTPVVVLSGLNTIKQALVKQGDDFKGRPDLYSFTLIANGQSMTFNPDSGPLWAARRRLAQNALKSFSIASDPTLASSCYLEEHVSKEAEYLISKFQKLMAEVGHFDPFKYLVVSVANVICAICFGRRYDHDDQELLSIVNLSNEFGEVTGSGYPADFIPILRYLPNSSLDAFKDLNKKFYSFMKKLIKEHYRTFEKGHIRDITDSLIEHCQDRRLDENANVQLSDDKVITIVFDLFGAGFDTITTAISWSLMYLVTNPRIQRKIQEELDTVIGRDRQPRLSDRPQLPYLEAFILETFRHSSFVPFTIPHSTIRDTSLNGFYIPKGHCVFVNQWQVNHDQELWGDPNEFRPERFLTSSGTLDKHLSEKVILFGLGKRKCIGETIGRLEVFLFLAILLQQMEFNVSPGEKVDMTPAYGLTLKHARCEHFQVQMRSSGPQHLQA
Kind of assay: Turnover of fluorometric substrates by rat CYP1A1. The note with it: substrate uM: Ia 2, AMMC 20, CEC 40, MFC 50, BFC 50, BQ 40, BzRes 50; 30 min; enzyme 50 nM (2.5 nM for CEC).

As to `O=c1cc(C(F)(F)F)c2ccc(OCc3ccccc3)cc2o1` [BFC, 7-Benzyloxy-4-trifluoromethylcoumarin], the “Turnover Numbers, CYP3A2” value at Rat CYP3A2 is given as 1.04 pmol product/min/pmol enzyme. The “Turnover Numbers, CYP2B1” value at Rat CYP2B1 was 3.70 pmol product/min/pmol enzyme. The “Turnover Numbers, CYP2C6” value at Rat CYP2C6 is on record as 2.62 pmol product/min/pmol enzyme. Further, the “Turnover Numbers, CYP2D2” value on Rat CYP2D2 is 0.12 pmol product/min/pmol enzyme. Also, the “Turnover Numbers, CYP1A1” value on Rat CYP1A1 is 0.34 pmol product/min/pmol enzyme.

For the compound `c1ccc(COc2ccc3cccnc3c2)cc1` [BQ, 7-Benzyloxyquinoline], the “Turnover Numbers, CYP3A2” value on Rat CYP3A2 is listed as 9.8 pmol product/min/pmol enzyme. The “Turnover Numbers, CYP2B1” value at Rat CYP2B1 was 2.5 pmol product/min/pmol enzyme. Also, on Rat CYP2C6, the “Turnover Numbers, CYP2C6” value is listed as 1.9 pmol product/min/pmol enzyme. Moreover, the “Turnover Numbers, CYP2D2” value on Rat CYP2D2 is 4.4 pmol product/min/pmol enzyme. Besides, the “Turnover Numbers, CYP1A1” value at Rat CYP1A1 is 5.7 pmol product/min/pmol enzyme.

Regarding `O=c1ccc2nc3ccc(OCc4ccccc4)cc3oc-2c1` [BzRes, 7-benzyloxyresorufin], on Rat CYP3A2, the “Turnover Numbers, CYP3A2” value is reported as 0.09 pmol product/min/pmol enzyme. The “Turnover Numbers, CYP2B1” value at Rat CYP2B1 was 0.82 pmol product/min/pmol enzyme. Also, the “Turnover Numbers, CYP2C6” value on Rat CYP2C6 is 0.02 pmol product/min/pmol enzyme. Also, the “Turnover Numbers, CYP1A1” value on Rat CYP1A1 is 1.35 pmol product/min/pmol enzyme.

`CCOc1ccc2cc(C#N)c(=O)oc2c1` [CEC, 7-Ethoxy-3-cyanocoumarin]: the “Turnover Numbers, CYP3A2” value on Rat CYP3A2 is recorded as 0.15 pmol product/min/pmol enzyme. At Rat CYP2B1, the “Turnover Numbers, CYP2B1” value is recorded as 0.45 pmol product/min/pmol enzyme. Also, the “Turnover Numbers, CYP2C6” value at Rat CYP2C6 is given as 2.14 pmol product/min/pmol enzyme. Further, the “Turnover Numbers, CYP1A1” value at Rat CYP1A1 is 78 pmol product/min/pmol enzyme.

For `O=C(OCc1ccccc1)c1ccccc1-c1c2ccc(=O)cc-2oc2cc(OCc3ccccc3)ccc12` [Compound Ia, O-Benzylfluorescein Benzyl Ester], at Rat CYP3A2, the “Turnover Numbers, CYP3A2” value is reported as 0.015 pmol product/min/pmol enzyme. Also, the “Turnover Numbers, CYP2C6” value at Rat CYP2C6 is 0.021 pmol product/min/pmol enzyme. Besides, the “Turnover Numbers, CYP2D2” value on Rat CYP2D2 is recorded as 0.194 pmol product/min/pmol enzyme. At Rat CYP1A1, the “Turnover Numbers, CYP1A1” value is given as 0.211 pmol product/min/pmol enzyme.

As for `COc1ccc2c(C(F)(F)F)cc(=O)oc2c1` [MFC, 7-Methoxy-4-trifluoromethylcoumarin], the “Turnover Numbers, CYP2B1” value on Rat CYP2B1 is listed as 2.82 pmol product/min/pmol enzyme. The “Turnover Numbers, CYP2C6” value at Rat CYP2C6 is recorded as 11.5 pmol product/min/pmol enzyme. The “Turnover Numbers, CYP2D2” value on Rat CYP2D2 is reported as 0.08 pmol product/min/pmol enzyme. Moreover, the “Turnover Numbers, CYP1A1” value on Rat CYP1A1 was 1.03 pmol product/min/pmol enzyme.
